pIC50: −log10 of the molar value. “And” between values parts separate entries of the source, which are not always exact repeats. Equal values may be shown once.
Assays:
Assay type in all cases: cell-based
[1] = tested on: 3T3-L1 fibroblasts; experiment: Glycerol content in culture medium of 3T3-L1 fibroblasts (lipolysis); details: positive control
Procedure: To confirm the anti-obesity effect of the plant extracts, the content of glycerol in the culture medium of 3T3-L1 fibroblasts was measured.
First, 3T3-L1 fibroblasts were cultured using a DMEM culture medium (proliferation culture medium) containing 10% bovine serum to an appropriate cell number on a plate. Then, using a DMEM culture medium (differentiation culture medium) containing 10% FBS, the cells were cultured until the plate was filled with the cells, and then were further cultured for 2 to 3 days. The existing culture medium was replaced with a culture medium to induce cell differentiation, which contains insulin (5 μg/mL), dexamethasone (0.25 μM), and 3-isobutyl-1-methylxanthine (0.5 mM), and was followed by incubation for 2 to 3 days. Afterwards, the culture medium was replaced with a medium containing only insulin and the cells were incubated for 2 to 3 days, and then the culture medium was replaced again with a DMEM culture medium containing 10% FBS and the cells were again incubated for 6 to 8 days (incubated until a point at which fat accumulation is observed in the cells). The anti-obesity substance was added before or after differentiation induction according to the purpose of the experiment. The cell culture medium was centrifuged at 10,000 rpm for 10 minutes, and the supernatant was obtained using a Pasteur pipette. The obtained supernatant was transferred to a plate and heated at 65° C. for 8 min to inactivate enzymes released from the cells. Next, a glycerol probe was dissolved in 220 μl of DMSO, and a glycerol enzyme mixture (Cayman Chemical, USA; Item No. 10010962) was dissolved in an assay buffer. These solutions were shielded from light and stored at −20° C. until experiment was performed. A 1 mM glycerol standard solution was prepared by diluting 10 μl of a glycerol standard solution with 990 μl of an analysis buffer. Then, the 1 mM glycerol standard solution was thoroughly mixed, 0, 2, 4, 6, 8, and 10 μl of the 1 Mm glycerol standard solution were respectively added to each well, and the analysis buffer was added to the each well to adjust the total volume to 50 μl. 50 μl of the sample (culture medium in which enzymes are inactivated) was added to each well. A reaction mixture containing 46 μl of the analysis buffer, 2 μl of the glycerol probe, and 2 μl of the glycerol enzyme mixture was prepared. 50 μl of the reaction mixture was added to each well containing the standard solution and the sample and was thoroughly mixed. Then, each well was shielded from light and left at room temperature for 30 minutes. Then, absorbance was measured at 570 nm.
As a result of the experiment, the amount of glycerol was quantified. Glycerol is a by-product of lipolysis. Accordingly, as the level of glycerol increases, an anti-obesity effect increases.
When lipolysis is enhanced by the test substance, the amount of triglycerides accumulated in adipocytes decreases and the amount of glycerol released increases. Accordingly, an increase in the amount of released glycerol means an increase in decomposition of triglycerides. Through this experiment, it can be confirmed that the test substance has an anti-obesity effect.

[2] = tested on: U266 cells; experiment: IgE secretion measurement, ELISA
Procedure: To confirm the anti-allergic effect of the plant extracts, the secretion amount of immunoglobulin E was measured. First, U266 cells were treated with a test substance while culturing the U266 cells in an RPMI1640 culture medium containing 10% FBS for 3 days. After 3 days of treatment with the test substance, the cell culture medium was harvested. IgE capture antibody was added to the plate and left for 1 day. The plate was blocked with 2% BSA. The collected culture medium was added to the plate and mixed by shaking. IgE detection antibody was added to the plate and mixed by shaking. Streptavidin-HRP was added to the plate, and after blocking light, the mixture was shaken. A substrate was added to the plate, and after blocking light, the mixture was mixed by shaking until the color of the mixture changed to blue. After confirming that the color had changed, a 2 N sulfuric acid solution was added to the plate and mixed by shaking until the color changed to yellow. After measuring the absorbance at 450 nm and 570 nm, results were analyzed by subtracting the absorbance at 570 nm from the absorbance at 450 nm. At this time, as a positive control, 1 μM dexamethasone was used, and as a result, an inhibitory effect of 32% was observed. As a result of treatment with 0.1 μM hydrocortisone, an inhibitory effect of 35% was observed.
As a result of the experiment, the amount of IgE was quantified. As the level of IgE decreases, the anti-allergic effect increases.

[3] = tested on: HUVEC cells; experiment: Recovery of reduction in nitric oxide induced by oxLDL (Griess reagent); details: positive control
Procedure: To confirm the blood circulation improvement effect of the plant extracts, recovery of reduction in nitric oxide induced by oxidized low density lipoprotein (oxLDL) was measured. First, HUVEC cells were suspended in a Ham's F-12K (Kaighn's modification) culture medium, and the suspended cells were aliquoted into a culture plate. Then, plant extracts (samples) diluted at various concentrations were added to the culture plate containing the cells. At this time, […]. The sample-treated cells were placed in a 5% CO2 incubator set at 37° C. and cultured for 24 to 48 hours, and then the supernatant was taken and used as an analysis sample.
To analyze nitric oxide, a Griess reagent was prepared by mixing equal amounts of component A and component B. Then, 250 μl of the sample (culture medium) and 50 μl of the Griess reagent were added to a plate and mixed thoroughly. Next, to prepare a sodium nitrite solution, a nitrite standard solution was diluted with distilled water to a concentration between […] (reference sample). Under light-blocked conditions, a mixture of the sample and the Griess reagent was incubated at room temperature for 30 minutes. Thereafter, the absorbance (OD) of the nitrite-containing sample with respect to the reference sample was measured at 548 nm.
In this experiment, it was confirmed whether the level of nitric oxide decreased by oxLDL was recovered by the plant extracts. At this time, as a result of the experiment, the amount of nitric oxide was quantified. Nitric oxide plays a role in dilating blood vessels.

[4] = tested on: HepG2 cells; experiment: Cholesterol synthesis in HepG2 cells ([14C] acetate incorporation); details: for pIC50: positive controls, HepG2 cells
Procedure: To confirm the lipid-cholesterol improvement effect of the plant extracts, an appropriate number of HepG2 cells was seeded and cultured using a IMEM culture medium (containing 10% of FCS, 4.5 g/L of glucose, 4 mM glutamine, 10 μg/ml of insulin, 50 μg/ml of penicillin, 50 μg/ml of streptomycin, and 1% of non-essential amino acids). At this time, the culture medium was replaced every 2 days, and the cells were used for the experiment on the 12th day after seeding.
1 ml of a labeled acetate solution ([^14C] sodium acetate) was added to the cells, and the cells were incubated in a CO2 incubator. After 1 hour of incubation, the culture medium was discarded, the cells were washed with ice-cold PBS, 2 M NaOH was added to detach the cells, and the cells were incubated at 95° C. for 1 hour to induce saponification of lipids. Then, [^3H] cholesterol (about 20,000 dpm/sample) was added as a recovery marker, and lipids were extracted with a chloroform-methanol (2:1 (v/v)) solution. Then, after separating lipides through thin layer chromatohrapy (TLC), a band corresponding to free cholesterol was scraped and placed in a scintillation vial for measurement. The results for the above experiment were expressed as the amount of acetate incorporated per protein (acetate (nmole) incorporated/protein (mg)).
In this experimental example, it was confirmed whether the plant extracts inhibit cholesterol synthesis. As a result of the experiment, the amount of cholesterol was quantified. A decrease in cholesterol level means that a cholesterol improvement effect is obtained.
The effect of the test substance on the intracellular cholesterol content was expressed as a relative ratio when the control group (treated with dimethyl sulfoxide (DMSO) only) was 100% or was expressed as the amount incorporated acetate ([^14C]-acetate (nmole) incorporated/4 h/well). As the measured value increases, the amount of synthesized cholesterol increases. That is, a decrease in cholesterol synthesis indicates improvement in cholesterol.

[5] = tested on: C2C12 cells; experiment: Glucose uptake measurement (2-NBDG method, FACS); details: positive control
Procedure: To confirm the blood glucose control effect of the plant extracts, the glucose uptake capacity of cells treated with the plant extracts was measured. First, C2C12 cells were seeded on a 96-well culture plate at a cell density of 1×10^4 cells/well. When a state of subconfluence was reached, which is within 24 hours, the experiment was started.
When saturated, the culture medium was removed, and 100 μl of a fresh medium containing 10 μM 2-NBDG or 100 μl of a fresh medium not containing 10 μM 2-NBDG (control) was added to each well. At this time, a test substance to be evaluated was included in the culture medium. That is, the cells were treated with the test substance by changing the culture medium. After treatment for 1 hour, wells were washed 2 times with pre-cold PBS. Then, cells in each well were collected and resuspended in 200 μl of a pre-cold medium, and the nuclei of the cells were stained with 1 μg/mL of propidium iodine (PI).
Measurement was performed with FACS for about 20 seconds. Event results of about 2,000 single cells were collected, and statistical analysis was performed on the event results.
In this experiment, it was determined whether the plant extracts promote intracellular glucose uptake. As a result of the experiment, the amount of glucose uptake into cells was quantified. That is, an increase in glucose uptake into cells means that the blood glucose control effect is improved.
As the value of measured fluorescence intensity increases, the glucose absorption rate increases. An increase in glucose absorption indicates a decrease in blood glucose levels.

## CC(C)NCC(O)c1ccc(O)c(O)c1 (centres unmarked) [Isoproterenol]
[1]; Mus musculus, 3T3-L1, 10 μM, read-out: Anti-obesity-Glycerol Conc. (% of control)
  activity at 10 µM: 872%
[1]; 10 pM
  Anti-obesity-Glycerol Conc.: 872.36 % of control
[1]; 10 μM
  Anti-obesity-Glycerol Conc.: 872.36 % of control
  Anti-obesity-Glycerol Conc. (% of control): 872.36 (Isoproterenol % of control
[1]; Isoproterenol 10 μM
  Anti-obesity-Glycerol Conc.: 872.36 % of control

## C[C@@H]1C[C@H]2[C@@H]3CCC4=CC(=O)C=C[C@]4(C)[C@@]3(F)[C@@H](O)C[C@]2(C)[C@@]1(O)C(=O)CO [Dexamethasone]
[2]; Homo sapiens, U-266, positive control, 1 uM, read-out: Anti-allergy-IgE secretion (% of control)
  activity at 1 µM: 67.3%
[2]; Homo sapiens, U-266, positive control, 1 μM, read-out: inhibitory effect on IgE secretion
  inhibition at 1 µM: 32%
[2]; positive control, 1 uM
  Anti-allergy-IgE secretion: 67.27 % of control
  Anti-allergy-IgE secretion (% of control): 67.27 (Dexamethasone % of control
[2]; positive control, Dexamethasone 1 uM
  Anti-allergy-IgE secretion: 67.27 % of control

## CCCCCCCCCCC[C@@H](C[C@@H]1OC(=O)[C@H]1CCCCCC)OC(=O)[C@H](CC(C)C)NC=O [orlistat]
[1]; 0.5 ppm
  increase of glycerol compared to the negative control group: 160%

## CC(C)c1nc(N(C)S(C)(=O)=O)nc(-c2ccc(F)cc2)c1/C=C/[C@@H](O)C[C@@H](O)CC(=O)O [Rosuvastatin]
[3]; 0.1 μM
  recovery of nitric oxide reduced by oxLDL: 100%
[3]; 0.05 ppm
  Blood circulation-NO Conc.: 98.29 % of control
  Blood circulation-NO Conc. (% of control): 98.29 % of control and 98.29 (Rosuvastatin % of control
[3]; Rosuvastatin 0.05 ppm
  Blood circulation-NO Conc.: 98.29 % of control
  Blood circulation-NO Conc. (% of control): 98.29 % of control

## C[C@]12CCC(=O)C=C1CC[C@@H]1[C@@H]2[C@@H](O)C[C@@]2(C)[C@H]1CC[C@]2(O)C(=O)CO [hydrocortisone]
[2]; Homo sapiens, U-266, 0.1 μM, read-out: inhibitory effect on IgE secretion
  inhibition at 0.1 µM: 35%

## CCC(C)(C)C(=O)O[C@H]1C[C@@H](C)C=C2C=C[C@H](C)[C@H](CC[C@@H]3C[C@@H](O)CC(=O)O3)[C@H]21 [simvastatin]
[4]; Homo sapiens
  pIC50: 7.50

## CC(C)c1c(C(=O)Nc2ccccc2)c(-c2ccccc2)c(-c2ccc(F)cc2)n1CC[C@@H](O)C[C@@H](O)CC(=O)O [Atorvastatin]
[4]; Homo sapiens, HepG2, positive control, 70.4 nM, read-out: Lipid-cholesterol synthesis (% of control)
  activity at 0.0704 µM: 50%
[4]; Homo sapiens
  pIC50: 7.15
[4]; positive control, 70.4 nM
  Lipid-cholesterol synthesis: 50.00 % of control
  Lipid-cholesterol synthesis (% of control): 50.00 (Atorvastatin % of control
[4]; positive control, 70.4 nM, 0.0704 µM
  Lipid-cholesterol synthesis (% of control): 50.00 (Atorvastatin % of control
[4]; positive control, Atorvastatin 70.4 nM
  Lipid-cholesterol synthesis: 50.00 % of control

## CN(C)C(=N)N=C(N)N [Metformin]
[5]; Mus musculus, C2C12, 1 mM, read-out: Blood glucose-Glucose absorption (% of control)
  activity at 1000 µM: 184%
[5]; 1 mM
  Blood glucose-Glucose absorption: 183.77 % of control
  Blood glucose-Glucose absorption (% of control): 183.77 (Metformin % of control
  increase effect on glucose uptake: 180%
[5]; Metformin 1 mM
  Blood glucose-Glucose absorption: 183.77 % of control

Reference: patent US20230125075A1, “Composition Containing Paper Mulberry Extracts” (LG Household & Health Care Ltd., priority 2020, published 2023)
